Source: patent US20130331326A1, “METHOD OF INDUCING HEMATOPOIETIC RECONSTRUCTION” (DUKE UNIVERSITY, priority 2011, published 2013)
“Also recorded” adds a separate entry of the source.

What was measured:
[1] = test system: BM hematopoietic stem and progenitor cells; experiment: Hematopoietic regeneration in C57B16 mice after 700 cGy TBI (progenitor assays, competitive repopulation); assay type: in vivo, mouse
Method: (§1) BM cells were collected into PBS (Cellgro, Manassas, Va.) with 10% fetal bovine serum (Hyclone, Logan, Utah) and 1% penicillin/streptomycin (GIBCO, Grand Island, N.Y.). Viable BM cells were quantified using Trypan Blue Stain (Lonza, Basel, Switzerland) to exclude apoptotic and dead cells. Cells were then incubated with anti-c-kit, anti-Sca-1, anti-lineage cocktail, anti-CD41, anti-CD48, and anti-CD150 antibodies (Biolegend and eBiosciences, San Diego, Calif.; BD, San Jose, Calif.) to measure ckit^+sca-1^+lin^− (KSL) progenitor cells or CD150′CD41^−CD48^−KSL (SLAM/KSL) as previously described (Kiel et al, Cell 121:1109-1121 (2005)). Colony forming cells (CFCs) and CFU-S12 assays were also performed to measure functional hematopoietic stem/progenitor cell content. For CFCs, either whole BM or cultured lineage−cells, or KSL cells were plated onto methylcellulose (StemCell Technologies, Vancouver, BC, Canada), and colonies were scored on day 14. 1×10^5 BM or 2×10^5 cells were collected from donor mice and injected via tail vein into recipient C57B16 mice that had been given 950 cGy TBI. At day +12 post-injection, spleens from recipient mice were harvested and stained with Bouin's fixative solution (Ricca Chemical Company, Arlington, Tex.), and colonies were counted as previously described (Till and MeRadiat. Res. 14:213-222 (1961)). Complete blood counts were performed on a HemaVet 950 (Drew Scientific, Dallas, Tex.).
(§2) Competitive repopulation assays were also performed using donor C57B16 mice (CD45.2^+) that had been irradiated with 700 cGy TBI and gavaged daily with 10 μg/G erlotinib (Genentech, San Francisco, Calif.) or 150 μl water beginning on day 0 and continued through day +14. Donor BM cells were injected via tail vein into recipient B6.SJL mice (CD45.1^+) at a dose of 5×10^5 cells with a competing dose of host 1×10^5 BM MNCs. Tie2Cre;Bak1^−/−;Bax^FL/− mice were gavaged daily with 10 μg/G erlotinib or water starting day −3 and given 300 cGy TBI on day 0. Erlotinib administration continued until the timepoint of donor BM cell collection and analysis. Tie2Cre;Bak1^−/−;Bax^FL/− BM cells were injected via tail vein into recipient CD45.1^+ mice at a cell dose of 3×10^5 cells with a competing dose of host 1×10^5 CD45.1^+ cells. Multilineage hematopoietic reconstitution was measured in the PB of recipient mice by flow cytometry at 4, 8, and 12 weeks post-transplant. For survival studies with erlotinib administration, C57B16 mice were exposed to 700 cGy and then given 10 μg/G erlotinib or water starting day −3 and continuing daily through day +14.
Ten micrometer sections were cut using they CryoJane tape system (Instrumedics Inc, Hackensack, N.J., USA). Femurs were stained with hematoxylin and eosin or anti-mouse endothelial cell antibody (MECA-32) as previously described (Salter et al, Blood 113:2104-2107 (2009)) to assess BM cellularity and the BM vasculature after irradiation. Images were obtained using an Axiovert 200 microscope (Carl Zeiss Microscopy, Thornwood, N.Y.) or a Leica SP5 confocal microscope (Leica Microsystems Inc, Buffalo Grove, Ill.). Adobe Photoshop software (version 9.0.2, Adobe Systems, San JoSe, Calif.) was used to quantify positive signal as a measure of spatial distribution in the fields (Lehr et al, J. Histochem. Cytochem. 45:1559-1565 (1997), Lehr et al, J. Histochem. Cytochem. 47:119-126 (1999)).

[2] = test system: BM HSC and progenitor cells; experiment: Erlotinib pre-treatment of Tie2Cre;Bak1-/-;BaxFl/- mice, 300 cGy TBI, BM HSC and progenitor cell content; assay type: in vivo, mouse
Method: (§3) FIGS. 5A-5D. (FIG. 5A) Schematic diagram of irradiation and treatment of Tie2Cre;Bak1^−/−;Bax^Fl/− mice with erlotinib or water starting 3 days prior to TBI with evaluation of BM progenitor cell content and HSC repopulating capacity via competitive transplantation at +2 hours after TBI. […] A Student's 2-tailed t-test was used for all statistical analyses.
as §2

[3] = test system: BM lin- cells; experiment: Culture of BM lin- cells from VavCre;EGFRfl/fl or VavCre;EGFR+/+ mice with erlotinib; assay type: cell-based, mouse; details: TSF + 10 uM erlotinib, 72 hours
Method: Cell apoptosis and necrosis were analyzed by flow cytometry according to manufacturer's protocols with Annexin V-FITC and 7-AAD staining (BD, San Jose, Calif.). […] Cells were fixed and permeabilized with Fix Buffer I and Perm Buffer III (BD), and then stained with mouse anti-phospho-AKT-S473 PE (BD) or isotype control. Cell cycle analysis was performed by flow cytometric analysis modified from previous reports (Jordan et al, Exp. Hematol. 24:1347-1355 (1996), Chute et al, Hum. Gene Ther. 11:2515-2528 (2000), Sungartz et al, Blood 119:1308-1309 (2012)). Briefly, cells were fixed and permeabilized with 0.25% Saponin (Calbiochem, La Jolla, Calif.), 2.5% paraformaldehyde, 2% FBS in 1×PBS, and then labeled with Ki67-FITC and 7-AAD (BD). BM lin^− cells from VavCre;EGFR^+/+ or VavCre;EGER^fl/fl were cultured with TSF or TSF+10 μM erlotinib, or TSF following 300 cGy for 72 hours, and then collected for total cell counts and CFCs analysis.

[4] = test system: C57B16 mice; experiment: Survival of C57B16 mice after 700 cGy TBI; assay type: in vivo, mouse
[5] = test system: EGFR; experiment: EGFR phosphorylation in BM KSL cells of erlotinib-treated Tie2Cre;Bak1-/-;BaxFl/- mice; assay type: in vivo, mouse; details: erlotinib-treated Tie2Cre;Bak1-/-;BaxFl/- mice vs water
Method: as §3

[6] = test system: BM KSL cells; experiment: Culture of 300 cGy-irradiated BM KSL cells with BM ECs or TSF cytokines; CFC and CFU-S12 recovery; assay type: cell-based, mouse; details: screen of candidate proteins from cytokine array; data not shown
Method: as §1, with “Tex.). […]” for “Tex.).”

[7] = 700 cGy TBI, erlotinib 10 ug/G oral gavage daily through day +14, vs water

## C#Cc1cccc(Nc2ncnc3cc(OCCOC)c(OCCOC)cc23)c1 [erlotinib]
[1]; 700 cGy TBI, erlotinib 10 ug/G oral gavage daily through day +14
  HSC pool at day +14 post-TBI by competitive repopulation assay: essentially absent
[1]; [7]
  BM CFCs and CFU-S12 at day +14: significantly reduced; also recorded: persistent, significant depletion
  BM cellularity at day +14: persistent BM hypoplasia
[1]; 700 cGy TBI, erlotinib 10 ug/G oral gavage daily, same in control mice, data not shown
  BM HSCs and progenitor cells at day +7 post-TBI: depletion of BM HSCs and progenitor cells
[1]; 700 cGy TBI, erlotinib-treated donors vs control
  short-term and longer-term HSCs (4 week through 12 week donor cell engraftment): marked reduction
[1]; Example 1, administration of erlotinib to mice
  hematopoietic reconstitution following total body irradiation: marked delay
[2]; BM from erlotinib-treated Tie2Cre;Bak1-/-;BaxFl/- mice vs irradiated control
  engraftment of myeloid cells, B cells and T cells at 12 weeks post-transplant: reduced engraftment
[2]; erlotinib from 3 days prior to 300 cGy TBI, +2 hours after irradiation, vs water
  BM KSL cells and CFU-S12 following TBI: decreased BM KSL cells and decreased BM CFU-S12 content; also recorded: significantly decreased
[2]; erlotinib-treated, 300 cGy irradiated Tie2Cre;Bak1-/-;BaxFl/- donors vs water
  decreased HSC content (4- to 12-week engraftment in competitively transplanted recipients): more than 20 fold
[3]; EGFR+/+ BM lin- cells
  total cells and CFCs: decreased yield in total cells and CFCs; also recorded: significantly less total cells and CFCs
[3]; EGFRfl/fl BM lin- cells, vs cytokines alone
  total cell expansion or CFC production: no significant effect
[4]; 10 ug/G erlotinib oral gavage from 3 days prior to TBI for 14 days post-irradiation, water controls 53% at day +30
  mice that survived beyond day +27: 0 of 15
[4]; 10 ug/G erlotinib via gavage from 3 days prior to TBI until day +14
  mice that died by day +27: 15 of 15
[5]
  EGFR-phosphorylation in BM KSL cells: decrease in EGFR-phosphorylation

B1: IL17f: candidate cytokine from BM serum array screened on irradiated BM KSL cells (protein, UniProt Q7TNI7 29-161, looked up)
Interleukin-17F: RKNPKAGVPALQKAGNCPPLEDNTVRVDIRIFNQNQGISVPREFQNRSSSPWDYNITRDPHRFPSEIAEAQCRHSGCINAQGQEDSTMNSVAIQQEILVLRREPQGCSNSFRLEKMLLKVGCTCVKPIVHQAA
[6]
  modulation of the activity of FL/- ECs or FL/+ ECs in promoting BM KSL cell recovery after irradiation: none modulated the activity
  recovery of BM KSL cells in vitro following irradiation: none of these proteins significantly altered the recovery

B2: IL17: candidate cytokine from BM serum array screened on irradiated BM KSL cells (protein, UniProt Q62386 26-158, looked up)
Interleukin-17A: AAIIPQSSACPNTEAKDFLQNVKVNLKVFNSLGAKVSSRRPSDYLNRSTSPWTLHRNEDPDRYPSVIWEAQCRHQRCVNAEGKLDHHMNSVLIQQEILVLKREPESCPFTFRVEKMLVGVGCTCVASIVRQAA
[6]
  modulation of the activity of FL/- ECs or FL/+ ECs in promoting BM KSL cell recovery after irradiation: none modulated the activity
  recovery of BM KSL cells in vitro following irradiation: none of these proteins significantly altered the recovery

B3: KC: keratinocyte-derived chemokine, candidate protein screened on irradiated BM KSL cells (protein, UniProt P12850 25-96, looked up)
Growth-regulated alpha protein: APIANELRCQCLQTMAGIHLKNIQSLKVLPSGPHCTQTEVIATLKNGREACLDPEAPLVQKIVQKMLKGVPK
[6]
  modulation of the activity of FL/- ECs or FL/+ ECs in promoting BM KSL cell recovery after irradiation: none modulated the activity
  recovery of BM KSL cells in vitro following irradiation: none of these proteins significantly altered the recovery

B4: IL5: candidate cytokine from BM serum array screened on irradiated BM KSL cells (protein, UniProt P04401 21-133, looked up)
Interleukin-5: MEIPMSTVVKETLTQLSAHRALLTSNETMRLPVPTHKNHQLCIGEIFQGLDILKNQTVRGGTVEMLFQNLSLIKKYIDRQKEKCGEERRRTRQFLDYLQEFLGVMSTEWAMEG
[6]
  modulation of the activity of FL/- ECs or FL/+ ECs in promoting BM KSL cell recovery after irradiation: none modulated the activity
  recovery of BM KSL cells in vitro following irradiation: none of these proteins significantly altered the recovery
